pEC50: −log10 of the molar value.
Columns and labels:
LPA1 = biological target: T1, LPA1 (Homo sapiens, UniProt Q92633); experiment: LPA receptor-mediated Ca2+ mobilization assay, LPA1; format: cell-based; conditions: for inhibition of LPA1 Ca2+ response: 10 μM, ~EC75 LPA 18:1; for LPA1 Imax (%): inhibition by 10 μM compound of ~EC75 LPA 18:1 Ca2+ response; for pEC50: agonist, Ca2+ mobilization
T1 construct: expressed in transfected cells
Protocol: Similarity searches were performed separately using each fingerprint to quantitate similarity. Hits meeting the 80% similarity threshold from each search were ranked based on the Tanimoto coefficient measure of similarity to a target molecule NSC12404, and the top 75 unique hits from each fingerprint search were selected for further analysis. The 225 compounds selected for further analysis were clustered based on Tanimoto coefficients calculated using Molecular ACCess System-key fingerprints (MACCS keys) and evaluated using the diversity subset function implemented in MOE. This selected a diverse subset of 27 compounds for biological evaluation by choosing the middle compounds in each cluster. These 27 compounds were tested in Ca^2+ mobilization assays at a concentration of 10 μM using stable cell lines individually expressing LPA2 and also in vector-transfected control cells. Hits activating LPA2 were further tested using cells expressing the other established and putative LPA GPCRs. Experimental testing of the selected compounds identified the three new selective LPA2 agonists: GRI977143, H2L5547924, and H2L5828102. […] They arbitrarily selected GRI977143 for further characterization in cell-based assays.
J Biol Chem (2009) 284(25): 17304-17319). […] The cells were loaded with Fura-2-acetoxymethyl esther (Fura-2/AM) in Krebs buffer containing 0.01% pluronic acid for 30 min and rinsed with Krebs buffer before measuring Ca^2+ mobilization. The ratio of peak emissions at 510 nm after 2 min of ligand addition was determined for excitation wavelengths of 340 nm/380 nm. All samples were run in quadruplicate. […] The half maximally effective concentration (EC50), and inhibitory constant (Ki) values were calculated by fitting a sigmoid function to dose-response data points using KaleidaGraph software (version 4.1, Synergy Software; […]).
Mouse embryonic fibroblast (MEF) cells were isolated from E13.5 LPA1&2 double knockout (DKO) embryos. MEFs were transduced with empty vector or LPA2-containing lentiviruses and selected with 1.5 μg/ml puromycin. Cells were maintained in Dulbecco's modified Eagle medium (DMEM) supplemented with 10% (V/V) fetal bovine serum (FBS), 2 mM L-glutamine, 100 U/mL penicillin, and 100 μg/mL streptomycin. Serum-free medium contained 0.1% (W/V) BSA in DMEM. The rat intestinal epithelial cell line 6 (IEC-6) was obtained from the American Type Culture Collection (Rockville, Md.) at passage 13; passages 16-21 were used in all experiments. IEC-6 cells were maintained in a humidified 37° C. incubator in an atmosphere of 90% air and 10% CO2. Growth medium consisted of DMEM supplemented with 5% heat inactivated FBS, 10 μg/mL insulin, and 50 μg/mL gentamycin. The composition of the serum-starvation medium was the same as that of the full growth medium except that it contained no FBS. The McArdle rat hepatoma cell line (RH7777) stably expressing LPA2 receptors was a gift from Dr. Fumikazu Okajima (Gunma University, Maebashi, Japan). RH7777 cells stably expressing LPA1 or LPA3 receptors were generated in-house and had been characterized earlier. Wild type and LPA receptor (LPAR) stably transfected RH7777 cells were grown in DMEM supplemented with 10% FBS and 2 mM L-glutamine in the presence of 250 μg/ml G418. Chinese hamster ovary (CHO) cells stably expressing either vector or LPA4 receptor were a kind gift from Dr. Takao Shimizu (Tokyo University; Tokyo, Japan). Cells were cultured in Ham's F12 medium containing 10% FBS, 2 mM L-glutamine, and 350 μg/ml G418. Rat neuroblastoma cells (B103) were transduced with the lentivirus harboring wild type of FLAG-LPA5 and selected with puromycin to establish the stable cell lines. The stable cells were maintained in DMEM supplemented with 10% FBS and 0.4 μg/ml puromycin. GPR87- and P2Y10-expressing CHO cells and vector-transfected control cells were a gift from Dr. Norihisha Fujita (Ritsumeikan University; Shiga, Japan). […]

[1] = system: vector- and LPA2-transduced MEF cells; experiment: Adriamycin-induced apoptosis, DNA fragmentation ELISA; format: cell-based, mouse; conditions: GRI977143 10 μM
Protocol: (§1) Experiments were performed on vector- and LPA2-transduced MEF cells. To measure caspase 3, 7, 8, or 9 activity and DNA fragmentation, cells were plated in 48-well plates (2×10^4 cells/well). To detect PARP-1 cleavage and Bax translocation, 1.5×10^6 cells were plated in 10-cm dishes and cultured overnight in full growth medium. The next morning, the growth medium was replaced by serum-starvation medium and cells were pretreated for 1 h with LPA (1-10 μM), OTP (1-10 μM), GRI977143 (1-10 μM), or vehicle. Caspase activity, DNA fragmentation, PARP-1 cleavage, and Bax translocation were measured 5 h after incubation with 1.7 μM Adriamycin or 24 h after serum withdrawal.
Apoptotically-challenged cells were washed twice with PBS, and a quantitative DNA fragmentation assay was carried out using a Cell Death Detection ELISA PLUS kit (Roche Diagnostics, Penzberg, Germany) and normalized to protein concentration using the BCA Protein Assay Kit (Thermo Fisher Scientific, Inc.; Rockford, Ill.) as described previously (Valentine et al., 2010). Aliquots of nuclei-free cell lysate were placed in streptavidin-coated wells and incubated with anti-histone-biotin antibody and anti-DNA peroxidase-conjugated antibody for 2 h at room temperature. After the incubation, the sample was removed, and the wells were washed and incubated with 100 μl 2,2′-azino-di[3-ethylbenzthiazolin-sulfonate substrate at room temperature before the absorbance was read at 405 nm. Results were expressed as absorbance at 405 nm/min/mg protein as detailed in our previous report (Ray et al., Mdm2 inhibition induces apoptosis in p53 deficient human colon cancer cells by activating p73- and E2F1-mediated expression of PUMA and Siva-1. Apoptosis (2011) 16(1): 35-44).

[2] = system: vector- and LPA2-transduced MEF cells; experiment: Adriamycin-induced apoptosis, caspase activity assay; format: cell-based, mouse; conditions: for decrease in caspase-8 activation / decrease in caspase 9 activation: GRI977143 10 μM; for protection against caspase 3 and 7 activation: GRI977143 above 3 μM; for inhibition of caspase 3/7 activation: 10 μM
Protocol: as §1
Caspase-Glow® 3/7, Caspase-Glow® 8 and Caspase-Glow® 9 reagents were purchased from Promega (Madison, Wis.) and used according to the manufacturer's instructions. Briefly, cells were lysed by adding 50 μl of lysis reagent per well, followed by shaking for 30 min at room temperature. […] lysate were transferred to a 96-well white-wall plate, and luminescence was measured using a BioTek® (Winooski, Vt.) plate reader.

[3] = LPA2-transduced MEF, LPA and OTP 3 μM
[4] = LPA2-transduced MEF, LPA and OTP 1 μM
[5] = vector-transduced MEF, LPA and OTP 1 μM

T1 sequence (Q92633 whole entry, species assumed): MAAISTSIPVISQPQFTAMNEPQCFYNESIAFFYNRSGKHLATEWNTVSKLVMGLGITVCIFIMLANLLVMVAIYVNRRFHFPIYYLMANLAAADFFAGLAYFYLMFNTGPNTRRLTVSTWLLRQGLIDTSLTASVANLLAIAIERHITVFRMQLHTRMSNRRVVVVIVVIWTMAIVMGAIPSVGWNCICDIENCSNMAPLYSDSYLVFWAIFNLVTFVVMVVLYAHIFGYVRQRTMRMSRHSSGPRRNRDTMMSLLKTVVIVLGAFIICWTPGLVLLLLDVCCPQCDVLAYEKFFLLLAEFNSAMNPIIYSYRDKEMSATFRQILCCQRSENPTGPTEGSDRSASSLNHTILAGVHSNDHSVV

`O=C(O)c1cc(Cl)c(Cl)cc1C(=O)Nc1ccc2c(c1)C(=O)c1ccccc1-2` [Compound H2L5547924] was tested, and the “inhibition of LPA1 Ca2+ response” value (LPA1) was “partially inhibited” and the “LPA1 Imax (%)” value (LPA1) was 21%.
`CCCCCCCC/C=C\CCCCCCCC(=O)OC[C@@H](O)COP(=O)(O)O` [LPA 18:1, Lysophosphatidic acid (18:1)] was tested, and the “reduction of DNA fragmentation” value [1, 3] was 35±4%, the pEC50 (LPA1) was 6.89 and the “decrease in caspase-8 activation” value [2, 4] was 36±1%. The “protection against caspase 3 and 7 activation” value (“protection” below) ([2]; LPA2-transduced MEF) was “protected”, the “inhibition of caspase 3/7 activation” value ([2]; vector-transduced MEF) was 26±1% and the “decrease in caspase 8 activation” value [2, 5] was 12±2%.
With octadecenyl thiophosphate [OTP] the “reduction of DNA fragmentation” value [1, 3] was 32±1%, the pEC50 (LPA1) was 6.19 and the “decrease in caspase-8 activation” value [2, 4] was 33±2%. For the same compound, the “decrease in caspase 9 activation” value ([2]; LPA2-transduced MEF, OTP 1 μM) was 38±1%, the “protection” value ([2]; LPA2-transduced MEF) was “protected” and the “inhibition of caspase 3/7 activation” value ([2]; vector-transduced MEF) was “did not attenuate”. For the same compound, the “decrease in caspase 8 activation” value [2, 5] was 15±5%.
In the case of `O=C(O)c1ccccc1C(=O)Nc1ccc2c(c1)C(=O)c1ccccc1-2` [NSC12404], the pEC50 (LPA1) was under 5.00.
In the case of `O=C(O)c1ccccc1C(=O)Nc1ccc2c(c1)C(=O)c1ccccc1C2=O` [Compound H2L5828102], the “inhibition of LPA1 Ca2+ response” value (LPA1) was “partially inhibited” and the “LPA1 Imax (%)” value (LPA1) was 29%.
In the case of `O=C(O)c1ccccc1SCCCN1C(=O)c2cccc3cccc(c23)C1=O` [GRI977143], the “reduction of DNA fragmentation” value [1, 3] was 41±2%, the “reduction of DNA fragmentation” value ([1]; vector-transduced MEF) was 7±1% and the “decrease in caspase-8 activation” value [2, 4] was 41±5%. The “decrease in caspase 9 activation” value ([2]; LPA2-transduced MEF, OTP 1 μM) was 46±4%, the “protection” value ([2]; LPA2-transduced MEF) was “significant protection” and the “inhibition of caspase 3/7 activation” value ([2]; vector-transduced MEF) was “did not attenuate”. The “decrease in caspase 9 activation” value [2, 5] was “did not affect”.

From patent US9056835B2, “LPA2 receptor-specific benzoic acid derivatives” (University of Tennessee Research Foundation, priority 2012, dated 2015)
